The experiment deals with α7 integrin promoter. As to the kind of experiment: muscle cell-based assay: α7βgal+/− myoblasts/myotubes, LacZ reporter, β-galactosidase cleavage of FDG. On the set-up: species or system mouse; Results in α7+/− β-galactosidase assay: scale not given here. The conditions noted are these: Myotubes; for Results in a α7+/− β-galactosidase assay, Myotubes, 0.5 uM: compound at 0.5 uM; for Results in a α7+/− β-galactosidase assay, Myotubes, 1 uM: compound at 1 uM; for Results in a α7+/− β-galactosidase assay, Myotubes, 5 uM: compound at 5 uM; for Results in a α7+/− β-galactosidase assay, Myotubes, 10 uM: compound at 10 uM; for Results in a α7+/− β-galactosidase assay, Myotubes, 20 uM: compound at 20 uM; for Results in a α7+/− β-galactosidase assay, Myotubes, 40 uM: compound at 40 uM. In short, it runs like this: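 Primary α7βgal+/− mouse myoblasts (LacZ knocked into α7 integrin exon 1, promoter retained), differentiated; promoter activity read as β-galactosidase conversion of non-fluorescent FDG to fluorescein. Hits followed by dose-response, western analysis and myostatin counterscreen.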

SMILES strings stand for the structures.

On to `c1ccc(-c2cn3c4c(sc3n2)CCCC4)cc1` [drawing 490], for which the “Results in a α7+/− β-galactosidase assay, Myotubes, 0.5 uM” value (from here on “Results … 0.5 uM”) was −0.06339; the “Results in a α7+/− β-galactosidase assay, Myotubes, 1 uM” value (“Results … 1 uM” below) came to 0.06029; the “Results in a α7+/− β-galactosidase assay, Myotubes, 5 uM” value (“Results … Myotubes, 5 uM” for short) is on record as −0.3683; the “Results in a α7+/− β-galactosidase assay, Myotubes, 10 uM” value (from here on “Results … 10 uM”) is −0.08198. The “Results in a α7+/− β-galactosidase assay, Myotubes, 20 uM” value (shortened to “Results … 20 uM”) is listed as −0.09547 and the “Results in a α7+/− β-galactosidase assay, Myotubes, 40 uM” value (“Results … 40 uM” below) was determined as 0.1666.

For `COc1ccccc1CC(=O)Nc1cc(S(=O)(=O)N2CCOCC2)ccc1N1CCOCC1` [drawing 491], the “Results … 0.5 uM” value was 0.003263; the “Results … 1 uM” value is recorded as 0.04702; the “Results … Myotubes, 5 uM” value was −0.2793; the “Results … 10 uM” value is recorded as 0.1263. For the same compound, the “Results … 20 uM” value was −0.1143 and the “Results … 40 uM” value is 0.0714.

Turning to `COc1ccccc1/C=C1\C(=O)Nc2ccccc21` [drawing 492], the “Results … 0.5 uM” value is −0.03334; the “Results … 1 uM” value is on record as 0.08625; the “Results … Myotubes, 5 uM” value is −0.2626; the “Results … 10 uM” value is 0.09022. Further, the “Results … 20 uM” value is on record as −0.05273 and the “Results … 40 uM” value came out at 0.2894.

As for `CN1C(=O)N(CC(=O)N2CCN(S(=O)(=O)c3ccc(Cl)s3)CC2)C(=O)C12CCCCC2` [drawing 493], the “Results … 0.5 uM” value was 0.02298; the “Results … 1 uM” value came out at 0.1534; the “Results … Myotubes, 5 uM” value was −0.342; the “Results … 10 uM” value turned out to be 0.1222. The “Results … 20 uM” value is recorded as −0.2548 and the “Results … 40 uM” value is listed as −0.1971.

In the case of `Cn1cc(CN2CCC(C(=O)Nc3cccc(-c4cscn4)c3)CC2)cn1` [drawing 494], the “Results … 0.5 uM” value is given as −0.07662; the “Results … 1 uM” value was found to be 0.03293; the “Results … Myotubes, 5 uM” value is −0.2802; the “Results … 10 uM” value was 0.1352. The “Results … 20 uM” value is listed as −0.1701 and the “Results … 40 uM” value is on record as 0.00319.

For `O=C1Cc2ccccc2/C1=C\c1ccc([N+](=O)[O-])cc1` [drawing 495], the “Results … 0.5 uM” value is −0.06418; the “Results … 1 uM” value is −0.0268; the “Results … Myotubes, 5 uM” value is −0.312; the “Results … 10 uM” value is 0.004591. Further, the “Results … 20 uM” value was −0.246 and the “Results … 40 uM” value is given as −0.2389.

For `CCCC(=O)OCC(=O)c1[nH]c(C)c(C(C)=O)c1C` [drawing 496], the “Results … 0.5 uM” value is listed as −0.1192; the “Results … 1 uM” value is on record as −0.0136; the “Results … Myotubes, 5 uM” value is listed as −0.3312; the “Results … 10 uM” value is −0.02935. Also, the “Results … 20 uM” value is −0.1657 and the “Results … 40 uM” value was −0.01124.

`CCO/C(C)=C1\C(=O)Nc2ccccc21` [drawing 497]: the “Results … 0.5 uM” value is reported as −0.1394; the “Results … 1 uM” value was found to be 0.0259; the “Results … Myotubes, 5 uM” value was −0.3175; the “Results … 10 uM” value is −0.219. Besides, the “Results … 20 uM” value is given as −0.1574 and the “Results … 40 uM” value worked out at 0.04819.

For `COc1ccc(C(=O)Nc2ccc(Cl)cn2)cc1Cl` [drawing 498], the “Results … 0.5 uM” value turned out to be 0.01557; the “Results … 1 uM” value is recorded as −0.1102; the “Results … Myotubes, 5 uM” value is given as −0.4051; the “Results … 10 uM” value is listed as −0.6189. The “Results … 20 uM” value is −0.2285 and the “Results … 40 uM” value was −0.2585.

For the compound `CCOc1ccccc1NC(=O)c1cccc2c1C(=O)N(C1CCCCC1)C2` [drawing 499], the “Results … 0.5 uM” value is listed as 0.0377; the “Results … 1 uM” value is listed as −0.1345; the “Results … Myotubes, 5 uM” value is −0.3317; the “Results … 10 uM” value is recorded as −0.3744. Moreover, the “Results … 20 uM” value is −0.1769 and the “Results … 40 uM” value was −0.1762.

Regarding `CCOC(=O)C1CCCN(C(=O)CNS(=O)(=O)c2ccc(Br)s2)C1` (stereo not drawn) [drawing 500], the “Results … 0.5 uM” value is −0.02306; the “Results … 1 uM” value is 0.05901; the “Results … Myotubes, 5 uM” value was −0.3059; the “Results … 10 uM” value is reported as −0.1617. For the same compound, the “Results … 20 uM” value is given as −0.03881 and the “Results … 40 uM” value is on record as −0.02855.

Consider `Cc1nnc(SCC(=O)c2ccc(Br)cc2)s1` [drawing 501], for which the “Results … 0.5 uM” value is −0.07126; the “Results … 1 uM” value was 0.01886; the “Results … Myotubes, 5 uM” value is recorded as −0.2188; the “Results … 10 uM” value is −0.3746. For the same compound, the “Results … 20 uM” value is on record as −0.08999 and the “Results … 40 uM” value came to 0.006174.

Turning to `Cn1ccc(C(=O)Nc2cccnc2Cl)n1` [drawing 502], the “Results … 0.5 uM” value is 0.04794; the “Results … 1 uM” value was −0.05775; the “Results … Myotubes, 5 uM” value turned out to be 0.0198; the “Results … 10 uM” value is recorded as 0.06627. The “Results … 20 uM” value is on record as −0.1124 and the “Results … 40 uM” value is on record as −0.1256.

Consider `CCOC(=O)c1sc(=N)n(-c2ccc(OC)cc2)c1C` [drawing 503], for which the “Results … 0.5 uM” value was determined as 0.01467; the “Results … 1 uM” value is on record as −0.0655; the “Results … Myotubes, 5 uM” value is reported as −0.3446; the “Results … 10 uM” value is listed as −0.2817. The “Results … 20 uM” value is −0.1985 and the “Results … 40 uM” value is on record as −0.1785.

Take `COc1c(Cl)cc(/C=C2\C(=O)Nc3ccccc32)cc1Cl` [drawing 504]: the “Results … 0.5 uM” value is listed as −0.04389; the “Results … 1 uM” value is recorded as −0.02066; the “Results … Myotubes, 5 uM” value is −0.212; the “Results … 10 uM” value is −0.2296. Besides, the “Results … 20 uM” value is −0.06953 and the “Results … 40 uM” value was −0.1103.

For the compound `COc1c(Cl)cc(/C=C2\C(=O)Nc3ccccc32)cc1Cl` [drawing 505], the “Results … 0.5 uM” value is listed as −0.1548; the “Results … 1 uM” value is listed as −0.1313; the “Results … Myotubes, 5 uM” value is listed as −0.4088; the “Results … 10 uM” value was −0.5935. The “Results … 20 uM” value is listed as −0.3163 and the “Results … 40 uM” value is on record as −0.3432.

`CC(=O)Oc1c(Cl)cc(/C=C2\C(=O)Nc3ccccc32)cc1Cl` [drawing 506]: the “Results … 0.5 uM” value is given as −0.05659; the “Results … 1 uM” value is reported as −0.06941; the “Results … Myotubes, 5 uM” value is given as −0.2138; the “Results … 10 uM” value was −0.4615. The “Results … 20 uM” value was −0.2526 and the “Results … 40 uM” value was −0.403.

For the compound `CCN(CC)CCNC(=O)c1c(C)[nH]c(CC2C(=O)Nc3ccc(F)cc32)c1C` (stereo not drawn) [drawing 507], the “Results … 0.5 uM” value was −0.07384; the “Results … 1 uM” value is listed as −0.08032; the “Results … Myotubes, 5 uM” value is −0.9266; the “Results … 10 uM” value is on record as −1.896. For the same compound, the “Results … 20 uM” value was −0.9097 and the “Results … 40 uM” value is −0.9224.

For `O=C1Nc2ccccc2/C1=C1\Nc2ccccc2C1=O` [drawing 508], the “Results in α7+/− β-galactosidase assay” value is recorded as −0.08969 (0.5 uM); −0.08698 (1 uM); −0.493 (5 uM); −0.5852 (10 uM); −0.318 (20 uM); −0.3129 (40 uM).

For the compound `Cc1[nH]c(/C=C2\C(=O)Nc3ccccc32)c(C)c1CCC(=O)O` [drawing 509], the “Results in α7+/− β-galactosidase assay” value runs as follows: (0.5 uM) 0.04928; (1 uM) 0.07615; (5 uM) −0.501; (10 uM) −0.6162; (20 uM) −0.2542; (40 uM) −0.3688.

For the compound `Cc1cc(C)c(/C=C2\C(=O)Nc3ccccc32)[nH]1` [drawing 510], the “Results in α7+/− β-galactosidase assay” value reads like this: (0.5 uM) −0.2205; (1 uM) −0.08303; (5 uM) −0.5223; (10 uM) −0.3378; (20 uM) −0.232; (40 uM) −0.06918.
